Data on 16 compounds can be found in PubChem BioAssay (NCI).

Structures are written as SMILES.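 Dose response: 5 concentrations. Exposure: 48 h. Format: 96-well plates. Endpoint: linear interpolation; highest concentration if not reached. Abbreviation: GI50, concentration required for 50% inhibition of growth. TGI: concentration producing complete growth inhibition.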

Holding throughout (assay): NCI-60 cell line screen, 48 h
The test system of assay [1] is U251 CNS.
The test system of assay [2] is SNB-19 CNS.
The subject of assay [3] is SW-620 colon.
Assay [4] deals with NCI-H522 lung.
Assay [5] deals with HOP-62 NSCLC.
Assay [6] deals with ACHN renal.
Assay [7] concerns KM12 colon.
Assay [8] concerns EKVX NSCLC.
Assay [9] has as its system IGROV1 ovarian.
The subject of assay [10] is HS 578T breast.
In assay [11] the test system is MDA-MB-231 breast.

Turning to `C=CC(=O)NCNC(=O)C=C`, the TGI in assay [1], in [2], in assay [3], in assay [4], in assay [5] and in assay [6] was more than 100 µM each time. For the same compound, the TGI in assay [7], in assay [8] and in [9] was more than 100 µM in each case.
With `COc1cc(/C=C/C(=O)c2ccc(F)cc2)ccc1OCCCCCOc1cc2c(cc1OC)C(=O)N1CCCC1C=N2` (stereo not given), the GI50 is less than 0.0223 µM in [2]; 0.0318 µM in [4]; 0.0197 µM in [6]; 0.0147 µM in [7]; 0.0298 µM in [10]; 0.151 µM in assay [8]. In addition, the figures for the GI50 in [9] and in [11] were 0.0646 µM and 0.282 µM, respectively. Further, the TGI in [2] turned out to be 3.35 µM; in assay [4], 0.249 µM; in assay [6], 0.368 µM; in [7], 0.0501 µM; in assay [10], 0.223 µM; in assay [8], 0.601 µM. Further, the TGI in assay [9] is 11.3 µM; in assay [11], 1.96 µM.
Turning to `Cc1cc(C)c(NC(=O)/C=C/c2ccccc2)c(C)c1`, the TGI in assay [1] was more than 100 µM; in assay [2], more than 100 µM; in [3] it was more than 100 µM; in [4], 61.8 µM; in assay [5], more than 100 µM; in assay [6] it was more than 100 µM. Further, the TGI in [7], in [10], in assay [8] and in assay [9] was more than 100 µM each time.
For the compound `OCC1OC(n2cnc3c(SCc4ccccc4)ncnc32)C(O)C1O` (stereo not given), the TGI in assay [1], in [2], in assay [3], in [4], in assay [5] and in assay [6] was more than 100 µM in each case. Besides, the TGI was more than 100 µM in assay [7]; more than 61.4 µM in assay [10]; more than 100 µM in assay [8]; more than 100 µM in assay [9]; more than 100 µM in assay [11].
`CC(C)OC(=O)NNc1cccc(Cl)c1`: the TGI in assay [1], in assay [2], in [3], in assay [5], in assay [6] and in assay [7] was more than 100 µM throughout. Further, the TGI in assay [10], in assay [8] and in assay [11] was more than 100 µM each time.
On to `Oc1c(Cl)c(Cl)c(O)c(CCNc2nccs2)c1Cl`, for which the TGI in assay [1] turned out to be 66.1 µM; in [2], 44.1 µM; in assay [3] it was 7.72 µM; in [5], 40.7 µM; in assay [6], 23.4 µM; in [7], 35.8 µM. Also, the values for the TGI in assay [8], in [9] and in assay [11] were 41.1 µM, 17.9 µM and 2.16 µM, respectively.
As to `Cc1cccc(N=C/C=C(\Cl)c2ccc3ccccc3c2)c1`, the TGI in assay [1] is 31 µM; in [2], 33 µM; in assay [3], more than 66.5 µM; in [4] it was more than 78.7 µM; in [5], 35.4 µM; in [6] it was 30.7 µM. Besides, the TGI in assay [7] was 41 µM; in [10] it was more than 96.7 µM; in assay [8], more than 100 µM; in [9] it was more than 60.3 µM; in assay [11], 33.6 µM.
`CN1CCN(c2ccc3[nH]c(C4=C(O)C(=O)[C@@H]5C(=C4O)N=C(CO)N5C)nc3n2)CC1`: the TGI in [1], in assay [2], in [3], in assay [4], in [5] and in assay [6] was more than 100 µM throughout. In addition, the TGI in assay [7], in assay [10], in [8], in assay [9] and in assay [11] was more than 100 µM throughout.
For `CC(=O)N=c1ccc2nc(N)nn(O)c-2c1`, the TGI in assay [1], in assay [2], in assay [3], in assay [4], in [5] and in assay [6] was more than 100 µM each time. For the same compound, the TGI in assay [7], in [10], in assay [8], in [9] and in [11] was more than 100 µM throughout.
In the case of `CCCCCCCCCC/C=C/C=O`, the TGI in [1], in assay [2], in [3], in assay [4], in [6] and in assay [7] was more than 100 µM each time. Moreover, the TGI in assay [8] and in assay [9] was more than 100 µM in each case.
With `C/C(=N\O)C1CC2C=C(C#N)C1N(Cc1ccccc1)C2` (stereo not given), the TGI in assay [1], in [2], in assay [3], in [5], in assay [6] and in [7] was more than 100 µM throughout. Besides, the TGI in assay [10], in [8] and in assay [11] was more than 100 µM throughout.
With `O=C(c1ccccc1)C(Nc1ccc2ccccc2c1)c1ccccc1` (stereo not given), the TGI in [1] was more than 100 µM; in assay [2], more than 100 µM; in assay [3], more than 100 µM; in [4], more than 67.3 µM; in assay [5], more than 100 µM; in assay [6], more than 100 µM. Further, the TGI in [7] was more than 81.5 µM; in assay [10], more than 100 µM; in assay [8] it was more than 100 µM; in assay [9], more than 100 µM; in assay [11], more than 100 µM.
For `COc1cc2cc3c4cc(OC)c(OC)cc4cc[n+]3c(C)c2cc1OC`, the TGI in assay [1], in [2], in [3], in [4], in assay [6] and in [7] was more than 100 µM each time. Also, the TGI in assay [10], in assay [8], in assay [9] and in assay [11] was more than 100 µM throughout.
With `COCC12CCC(OC)C34C5CC6(O)C(OC)C=C(C5C6OC(=O)c5ccccc5)C(C(OC)C13)C4N(C)C2` (stereo not given), the TGI in assay [1], in assay [2], in [3], in assay [4], in assay [5] and in assay [6] was more than 100 µM each time. In addition, the TGI in [7], in assay [10], in assay [8], in [9] and in [11] was more than 100 µM in each case.
With `CCP(=O)(CC)C(Cl)(Cl)C(O)C(Cl)(Cl)Cl` (stereo not given), the TGI in [1], in [2], in assay [3], in assay [4], in [5] and in assay [6] was more than 100 µM throughout. Besides, the TGI in [10], in assay [9] and in assay [11] was more than 100 µM throughout.
For the compound `[N-]=[N+]=CC(=O)OCC1NC(=O)C(COC(=O)C=[N+]=[N-])NC1=O` (stereo not given), the TGI in [1], in [2], in assay [3], in [5], in assay [6] and in assay [7] was more than 100 µM throughout. For the same compound, the TGI in assay [10], in assay [8], in assay [9] and in [11] was more than 100 µM each time.
